Source: patent publication US12194044B2, “Organic compounds” (priority 2016, dated 2025)

Tests used:
[1] = Pharmacokinetics in rats, PO and IV cross-over, plasma parent and metabolite AUC; format: in vivo; settings: male, Sprague-Dawley, rat
Procedure: The pharmacokinetics of each compound is determined after both oral (PO) and intravenous (IV) administration in cross-over studies in rats.
PO Administration: Six male Sprague-Dawley rats are divided into two 3-rat groups for PO administration of compound on day 1 of the study. […] Blood samples are collected at 0.25, 0.5, 1, 2, 4, 6, 8, 12 and 24-hours post dose and analyzed for plasma concentration of the administered compound and its metabolites.
IV Administration: Six male Sprague-Dawley rats are divided into two 3-rat groups for IV administration of compound on day 1 of the study. […] Blood samples are collected at 2 minutes, 5 minutes, 0.25, 0.5, 2, 4, 6, 8 and 12 hours post dose and analyzed for plasma concentration of the administered compound and its metabolites.
(§1) All blood samples are processed to plasma and analyzed for parent and metabolite concentrations using liquid chromatography-tandem mass spectrometry (LC-MS/MS). The metabolites analyzed include the N-demethylated amide compound Q-1 (discussed supra). Area under the curve (AUC) of parent and metabolites based on plasma versus time data are calculated using Prism 5.04 software (GraphPad Software, Inc.).

[2] = target: T1, Serotonin 5-HT2A (Homo sapiens, UniProt P28223); assay: Receptor binding studies, inhibition of human serotonin 5-HT2A receptor; settings: read-out: inhibition of the human serotonin 5-HT2A receptor
T1 sequence (P28223 whole entry): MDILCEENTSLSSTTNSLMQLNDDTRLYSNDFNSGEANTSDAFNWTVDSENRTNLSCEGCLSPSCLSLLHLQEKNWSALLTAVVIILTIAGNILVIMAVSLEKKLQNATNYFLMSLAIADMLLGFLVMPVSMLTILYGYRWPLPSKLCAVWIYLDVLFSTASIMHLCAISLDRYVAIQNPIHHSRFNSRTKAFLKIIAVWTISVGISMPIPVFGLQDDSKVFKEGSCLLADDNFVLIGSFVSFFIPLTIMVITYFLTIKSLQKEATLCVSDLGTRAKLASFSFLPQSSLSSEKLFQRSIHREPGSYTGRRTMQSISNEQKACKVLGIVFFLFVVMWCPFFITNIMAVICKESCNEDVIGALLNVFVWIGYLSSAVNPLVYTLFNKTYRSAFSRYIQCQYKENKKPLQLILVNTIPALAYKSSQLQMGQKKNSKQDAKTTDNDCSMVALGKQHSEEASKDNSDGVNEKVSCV

[3] = Pharmacokinetics in dogs, SL and SC, plasma parent and metabolite AUC; format: in vivo, beagle dogs; settings: dog
Procedure: The pharmacokinetics of each compound is determined after both sublingual (SL) and subcutaneous (SC) administration in non-cross over sequential studies in dogs.
SC Administration: Six male beagle dogs between 2 and 5 years of age are randomized in two groups of three dogs each. […] Dogs in group 2 are administered the compound of Example 2 at a dose of 1 mg/kg (free base equivalent) in a 0.5% methylcellulose/distilled water vehicle. Administration is subcutaneous in the intrascapular region via a 22 or 23 gauge needle. Whole blood samples are collected via the dog's cephalic vein pre-dose, and at post-dose time-points 5, 15 and 30 minutes, 1, 2, 4, 6, 8 and 24 hours. Following a minimum 7-day washout period, the dogs are transferred to the sublingual portion of the study.
Dogs in group 2 are administered the compound of Example 2 at a dose of 1 mg/kg (free base equivalent) in a 0.5% methylcellulose/distilled water vehicle. The animals are anesthetized prior to administration of the dose using propofol (6 mg/kg) and anesthesia is maintained for 30 minutes using 3-4.5% isoflurane. Administration is sublingual and the dosage is applied for 30 minutes, then wiped off using unwoven gauze. Whole blood samples are collected via the dog's cephalic vein pre-dose, and at post-dose time-points 5, 15 and 30 minutes, 1, 2, 4, 6, 8, 24, 36 and 48 hours.
as §1, with “The metabolites analyzed include the N-demethylated amide compound Q-1 (discussed supra).” left out

[4] = system: serotonin receptor (e.g., 5-HT2A), dopamine receptor (e.g., D2) and serotonin transporter; assay: Receptor binding studies, binding profile compared to Formula Q
[5] = Measurement of parent and amide metabolite levels in mice after single oral dose; format: in vivo; settings: for extent of amide formation compared to compound Q after normalizing for internal standard: normalized to internal standard
Procedure: The compound of Comparative Example 4 is used as an internal standard in each study in order to control for differences in the inherent rate of metabolism in each study's animal group. […] The maximum concentration, time to maximum concentration, and Area Under the Curve (AUC) for both the parent and the major amide metabolite is determined. […] Relative Amide Formation is thus calculated as follows for each Example X (i.e., Ex. 1, Ex. 2, Ex. 3 and Ex. Q): [formula]

[6] = target: Dopamine D2 (Homo sapiens, UniProt P14416); assay: Receptor activity Ki, dopamine D2; format: binding
Dopamine D2, sequence (P14416 whole entry): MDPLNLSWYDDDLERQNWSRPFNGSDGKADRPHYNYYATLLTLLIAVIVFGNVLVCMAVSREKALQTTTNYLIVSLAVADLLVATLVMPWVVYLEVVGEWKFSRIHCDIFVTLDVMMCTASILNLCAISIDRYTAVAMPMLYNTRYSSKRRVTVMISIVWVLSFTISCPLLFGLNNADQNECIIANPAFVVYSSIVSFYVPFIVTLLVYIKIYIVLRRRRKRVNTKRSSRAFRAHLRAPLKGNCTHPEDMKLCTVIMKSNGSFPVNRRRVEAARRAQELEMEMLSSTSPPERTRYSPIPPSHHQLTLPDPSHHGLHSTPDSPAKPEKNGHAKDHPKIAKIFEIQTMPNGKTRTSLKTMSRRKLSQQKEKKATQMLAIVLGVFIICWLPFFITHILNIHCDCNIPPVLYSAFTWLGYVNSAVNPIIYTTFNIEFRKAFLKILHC

[7] = target: Dopamine D1 (Homo sapiens, UniProt P21728); assay: Receptor activity Ki, dopamine D1; format: binding
Dopamine D1, sequence (P21728 whole entry): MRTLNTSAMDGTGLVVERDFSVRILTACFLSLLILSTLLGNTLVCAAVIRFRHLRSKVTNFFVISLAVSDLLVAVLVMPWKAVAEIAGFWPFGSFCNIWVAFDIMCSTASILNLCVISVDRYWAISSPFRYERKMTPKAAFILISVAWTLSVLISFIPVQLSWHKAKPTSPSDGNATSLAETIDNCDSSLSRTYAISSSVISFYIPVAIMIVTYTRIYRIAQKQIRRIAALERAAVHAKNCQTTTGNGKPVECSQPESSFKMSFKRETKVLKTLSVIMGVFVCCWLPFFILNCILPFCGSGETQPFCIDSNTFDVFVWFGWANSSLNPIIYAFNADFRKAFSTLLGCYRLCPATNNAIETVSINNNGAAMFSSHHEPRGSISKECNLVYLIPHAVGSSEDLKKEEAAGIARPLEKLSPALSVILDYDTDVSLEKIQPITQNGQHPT

[8] = target: Serotonin Transporter (Homo sapiens, UniProt P31645); assay: Receptor activity Ki, serotonin transporter; format: binding
Serotonin Transporter, sequence (P31645 whole entry): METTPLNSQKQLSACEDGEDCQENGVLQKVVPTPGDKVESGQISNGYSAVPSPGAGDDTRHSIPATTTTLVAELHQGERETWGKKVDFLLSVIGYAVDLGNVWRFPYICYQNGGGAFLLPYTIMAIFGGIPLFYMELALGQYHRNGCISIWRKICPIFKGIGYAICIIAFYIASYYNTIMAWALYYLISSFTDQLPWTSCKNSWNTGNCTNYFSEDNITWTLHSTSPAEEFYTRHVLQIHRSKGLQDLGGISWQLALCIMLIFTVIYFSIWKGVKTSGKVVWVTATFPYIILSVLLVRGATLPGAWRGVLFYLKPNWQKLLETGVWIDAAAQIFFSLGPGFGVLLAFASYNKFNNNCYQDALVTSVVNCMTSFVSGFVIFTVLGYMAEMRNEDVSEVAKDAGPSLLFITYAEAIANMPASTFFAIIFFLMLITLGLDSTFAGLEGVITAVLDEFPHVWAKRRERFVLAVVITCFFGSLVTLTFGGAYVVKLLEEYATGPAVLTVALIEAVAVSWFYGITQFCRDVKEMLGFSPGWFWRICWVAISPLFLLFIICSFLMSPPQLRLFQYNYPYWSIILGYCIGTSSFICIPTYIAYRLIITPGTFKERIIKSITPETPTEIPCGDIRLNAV

[9] = target: T1, Serotonin 5-HT2A; assay: biochemical

Row | Structure (SMILES) | AUC ([1]; iv, 1 mg/kg) | AUC ([1]; po, 10 mg/kg) | receptor binding profile compared to Formula Q [4] | extent of conversion of the parent compound to the amide metabolite compared to Formula Q [5] | extent of amide formation compared to compound Q after normalizing for internal standard [5] | Ki [6] | Ki [8] | also measured
1 | [2H]C1([2H])CN2c3c(cccc3N1C)[C@@H]1CN(CCCC(=O)c3ccc(F)cc3)CC[C@@H]12 (stereo in doubt) [Example 2, 2,2-D2-1-(4-fluorophenyl)-4-((6bR,10aS)-3-methyl-2,3,6b,7,10,10a-hexahydro-1H-pyrido[3′,4′:4,5]pyrrolo[1,2,3-de]quinoxalin-8(9H)-yl)butan-1-one] | 257 ng·h/mL | 58.5 ng·h/mL | substantially the same receptor binding profile | considerably lower | significantly lower |  |  | inhibition at 0.1 µM [2]: 98%; higher parent AUC compared to dosing of Formula Q ([3]; SL dosing): about 72%; higher parent AUC for SL compared to SC ([3]; SL vs SC): 61%
2 | [2H]C([2H])([2H])N1CCN2c3c(cccc31)[C@@H]1CN(CCCC(=O)c3ccc(F)cc3)CC[C@@H]12 [Example 1, 1-(4-Fluorophenyl)-4-((6bR,10aS)-3-methyl-d3-2,3,6b,7,10,10a-hexahydro-1H-pyrido[3′,4′:4,5]pyrrolo[1,2,3-de]quinoxalin-8(9H)-yl)butan-1-one p-toluenesulfonate] |  |  | substantially the same receptor binding profile | considerably lower | significantly lower |  |  | 
3 | [2H]C([2H])([2H])N1c2cccc3c2N(CC1([2H])[2H])[C@H]1CCN(CCCC(=O)c2ccc(F)cc2)C[C@@H]31 [Example 3, 2,2-D2-1-(4-fluorophenyl)-4-((6bR,10aS)-3-methyl-d3-2,3,6b,7,10,10a-hexahydro-1H-pyrido[3′,4′:4,5]pyrrolo[1,2,3-de]quinoxalin-8(9H)-yl)butan-1-one p-toluenesulfonate] |  |  | substantially the same receptor binding profile | considerably lower | significantly lower |  |  | 
4 | O=C(CCCN1CC[C@H]2[C@@H](C1)c1cccc3c1N2CCN3)c1ccc(F)cc1 [Example Q-1A] |  |  |  |  |  | 30 nM | 31 to 78 nM | Ki [7]: 110 nM; Ki [9]: 2 nM
5 | O=C1CN2c3c(cccc3[C@@H]3CN(CCCC(=O)c4ccc(F)cc4)CC[C@@H]32)N1 [Example Q-1] |  |  |  |  |  | 50 to 250 nM | > 600 nM | 
6 | CN1CCN2c3c(cccc31)[C@@H]1CN(CCCC(=O)c3ccc(F)cc3)CC[C@@H]12 [Formula Q, 4-((6bR,10aS)-3-methyl-2,3,6b,9,10,10a-hexahydro-1H-pyrido[3′,4′: 4,5]pyrrolo[1,2,3-de]quinoxalin-8(7H)-yl)-1-(4-fluorophenyl)-1-butanone, reference compound] | 231 ng·h/mL | 56 ng·h/mL |  |  |  |  |  | less net AUC of parent compound, SL compared to SC administration ([3]; SL vs SC): 10%
